Test results taken from PMC2695949, “Synthesis and Evaluation of Novel Organogermanium Sesquioxides As Antitumor Agents” (Bioinorganic Chemistry and Applications, 2009).

Key:
[1] = system: KB (human nasopharyngeal cancer) cells; experiment: MTT antitumor activity in vitro, KB cells; type: cell-based; details: 50 μg/mL, DMSO as solvent
Experimental: (§1) The antitumor activity in vitro was assayed by the MTT method using DMSO as solvent. The tumor inhibition yield and IC50 of the five organogermanium sesquioxides and Ge-132 against KB (human nasopharyngeal cancer), HCT (human colonic cancer), and Bel (human liver cancer) cells were measured.

[2] = system: HCT (human colonic cancer) cells; experiment: MTT antitumor activity in vitro, HCT cells; type: cell-based; details: 50 μg/mL, DMSO as solvent
Experimental: as §1

[3] = system: Bel (human liver cancer) cells; experiment: MTT antitumor activity in vitro, Bel cells; type: cell-based; details: 50 μg/mL, DMSO as solvent
Experimental: (§2) The antitumor activity in vitro was assayed by the MTT method using DMSO as solvent.

[4] = system: KB, HCT, and Bel cells; experiment: MTT antitumor activity in vitro, cell line not singled out; type: cell-based, human; details: bioassay at 1, 10, and 50 μg/mL
Experimental: as §2

[5] = Biodistribution in nude mice bearing human colonic cancer xenografts; type: in vivo, Balb/c nude mice; details: for Biodistribution, uptake: Tumor; for Biodistribution, uptake / T/NT (ratio of ID %/g of tumor over normal tissue): n = 3; for T/NT (ratio of ID %/g of tumor over normal tissue): 20 h
Experimental: Experimental animals (Balb/c nude mice) were provided by Experimental Animal Department of Chinese Academy of Medical Sciences. The nude mice were implanted with human colonic carcinoma cells (LoVo cells). When the tumor size was about 1 cm, the mice were used for the experiment.
Twelve nude mice bearing human colonic cancer xenografts were injected in tail vein with 555~740 kBq of ^99mTc labeled compound 5. Three animals were sacrified at 1-hour, 3-hour, 6-hour, and 20-hour postinjection, respectively. Tissues and organs were excised, rinsed, weighted, and counted in a γ counter. The uptake percentage of the injected dose per gram of the measured organ (ID %/g) and the ratio of ID %/g of tumor over normal tissues (T/NT) were calculated.

[6] = Solubility of the powders; type: physicochemical; details: 2 mol/L of NaOH solution

O=C1NC(=O)C2C3OC(C[CH]3[Ge](=[O])[O][Ge](=[O])[CH]3CC4OC3C3C(=O)NC(=O)C43)C12 (centres unmarked) [Compound 2]
Inhibition yield [1]: 0%
Inhibition yield [2]: 0%
Inhibition yield [3]: 0%
antitumor activity against cancer cells (in words) [4]: no antitumor activity

O=C(O)C[CH2][Ge](=[O])[O][Ge](=[O])[CH2]CC(=O)O [Ge-132, carboxyethylgermanium sesquioxide, reference compound]
Inhibition yield [1]: 0%
Inhibition yield [2]: 31.4%
Inhibition yield [3]: 0%

O=C1OC(=O)C2C3OC(C[CH]3[Ge](=[O])[O][Ge](=[O])[CH]3CC4OC3C3C(=O)OC(=O)C43)C12 (centres unmarked) [Compound 1]
Inhibition yield [1]: 0%
Inhibition yield [2]: 0%
Inhibition yield [3]: 0%
antitumor activity against cancer cells (in words) [4]: no antitumor activity

CCOC(=O)CCC(NC(=O)C[CH2][Ge](=[O])[O][Ge](=[O])[CH2]CC(=O)NC(CCC(=O)OCC)C(=O)OCC)C(=O)OCC (centres unmarked) [Compound 4, Germanium Sesquioxide of Ethyl Glutamate]
Inhibition yield [1]: 0%
Inhibition yield [2]: 41.5%
antitumor activity against cancer cells (in words) [4]: certain activities

NC(=S)NCC[CH2][Ge](=[O])[O][Ge](=[O])[CH2]CCNC(N)=S [Compound 5, γ-thiocarbamido propyl germanium sesquioxide]
Inhibition yield [1]: 92.9%
Inhibition yield [2]: 84.9%
Inhibition yield [3]: 70.9%
antitumor activity against cancer cells (in words) [4]: certain activities
Biodistribution, uptake ([5]; 1 h postinjection): 0.73 % ID/g
Biodistribution, uptake ([5]; 3 h postinjection): 0.97 % ID/g
Biodistribution, uptake ([5]; 6 h postinjection): 0.87 % ID/g
Biodistribution, uptake ([5]; 20 h postinjection): 0.62 % ID/g
clearance in tumor ([5]; nude mice, tail vein injection): relatively low
T/NT (ratio of ID %/g of tumor over normal tissue) ([5]; tumor versus Blood): 3.01
T/NT (ratio of ID %/g of tumor over normal tissue) ([5]; tumor versus Brain): 18.30
T/NT (ratio of ID %/g of tumor over normal tissue) ([5]; tumor versus Muscle): 5.81
solubility [6]: easily soluble

NN1C(=O)C2C3C[CH]([Ge](=[O])[O][Ge](=[O])[CH]4CC5OC4C4C(=O)N(N)C(=O)C54)C(O3)C2C1=O (centres unmarked) [Compound 3]
Inhibition yield [1]: 0%
Inhibition yield [2]: 0%
Inhibition yield [3]: 0%
antitumor activity against cancer cells (in words) [4]: no antitumor activity
solubility [6]: easily soluble
